The results in this text go back to patent US20120295291A1, “Method for Determining the Risk of Clopidogrel Resistance” (SIEMENS HEALTHCARE DIAGNOSTICS PRODUCTS GMBH, priority 2011, published 2012).

This assay deals with thrombocytes (thrombocyte activity; ADP receptor P2Y12). The conditions noted are these: for patients studied clopidogrel-resistant (closure time below cut-off after intake of clopidogrel): INNOVANCE PFA P2Y cartridges, after 300 or 600 mg clopidogrel loading dose, cut-off 106 s.

Where two headings read alike, the source gives them in different places.

On to `COC(=O)[C@H](c1ccccc1Cl)N1CCc2sccc2C1` [clopidogrel, methyl (S)-α-(2-chlorophenyl)-6,7-dihydrothieno[3,2-c]pyridine-5(4H)-acetate], for which the “relative risk of patient not responding to clopidogrel” value (Col/EPI closure time prior to intake 140 s (3.2% citrated blood), response by INNOVANCE PFA P2Y after intake in 3.8% citrated whole blood, p<0.0001) is 2.64; the “relative risk of patient not responding to clopidogrel” value (Col/EPI closure time prior to intake ≦140 s vs >140 s, 3.2% citrated whole blood, p<0.004) stood at 1.78; the “relative risk of patient not responding to clopidogrel” value (INNOVANCE PFA P2Y closure time prior to intake ≦59 s vs >59 s, 3.8% citrated whole blood, p<0.002) worked out at 1.98; the “relative risk of patient not responding to clopidogrel” value (INNOVANCE PFA P2Y closure time prior to intake ≦60 s vs >60 s, 3.2% citrated whole blood, p<0.02) stood at 1.61; the “relative risk of patient not responding to clopidogrel” value (patients undergoing ASA therapy, Col/ADP closure time prior to intake ≦91 s vs >91 s, 3.2% citrated whole blood, p=0.06) stood at 1.47. Moreover, the “patients studied clopidogrel-resistant (closure time below cut-off after intake of clopidogrel)” value (3.2% citrated whole blood) is recorded as 45.8% and the “patients studied clopidogrel-resistant (closure time below cut-off after intake of clopidogrel)” value (3.8% citrated whole blood) was found to be 37.5%.
